Earlier results as cited in US9839630B2, “Method of preparing (+)-1,4-dihydro-7-[(3S,4S)-3-methoxy-4-(methylamino)-1-pyrrolidinyl]-4-oxo-1-(2-thiazolyl)-1,8-naphthyridine-3-carboxylic acid” (Sunesis Pharmaceuticals, Inc., priority 2008, dated 2017).

Tests used:
xenografts = settings: literature
acute myeloid leukemia = settings: human cancer patients, clinical trials
ovarian cancer = settings: human cancer patients, clinical trials
[1] = tested on: various cancer cell lines; settings: literature
[2] = data of WO 2007/146335

| SMILES | preclinical activity against xenografts (xenografts) | clinical activity against acute myeloid leukemia (acute myeloid leukemia) | clinical activity against ovarian cancer (ovarian cancer) | preclinical activity against various cancer cell lines [1] | activity in a cytotoxicity assay [2] |
| --- | --- | --- | --- | --- | --- |
| CN[C@H]1CN(c2ccc3c(=O)c(C(=O)O)cn(-c4nccs4)c3n2)C[C@@H]1OC [SNS-595, (+)-1,4-dihydro-7-[(3S,4S)-3-methoxy-4-(methylamino)-1-pyrrolidinyl]-4-oxo-1-(2-thiazolyl)-1,8-naphthyridine-3-carboxylic acid] | preclinical activity | clinical activity | clinical activity | preclinical activity | – |
| CO[C@H]1CN(c2ccc3c(=O)c(C(=O)O)cn(-c4nccs4)c3n2)C[C@@H]1N [N-desmethyl compound, (+)-1,4-dihydro-7-[(3S,4S)-3-methoxy-4-amino-1-pyrrolidinyl]-4-oxo-1-(2-thiazolyl)-1,8-naphthyridine-3-carboxylic acid] | – | – | – | – | active |
